Test results from the NIST ThermoML archive (doi:10.1016/j.jct.2012.03.017).
Several values for one entry are separate records, joined by “and”; a condition that tells them apart may be missing. Equal entries are not always repeated.

Legend:
[1] = Crystal, Calculated from knudsen effusion weight loss
[2] = molar enthalpy of vaporization or sublimation; settings: 298.15 K; Crystal; drop calorimetry

OC1c2ccccc2Oc2ccccc21 [9H-xanthen-9-ol]
[1]
Settings	vapor or sublimation pressure
333.18 K	6.91e-05 kPa and 5.67e-05 kPa and 6.28e-05 kPa
335.14 K	8.54e-05 kPa and 8.17e-05 kPa and 7.79e-05 kPa
337.08 K	0.0001045 kPa and 0.0001126 kPa and 0.0001038 kPa
339.18 K	0.0001355 kPa and 0.0001321 kPa and 0.000152 kPa
341.13 K	0.0001838 kPa and 0.0001813 kPa and 0.0001645 kPa
343.08 K	0.0002256 kPa and 0.0002318 kPa and 0.0002156 kPa
345.08 K	0.0002616 kPa and 0.0002749 kPa and 0.0002595 kPa
347.14 K	0.0003355 kPa and 0.0003321 kPa and 0.0003104 kPa
349.17 K	0.0004364 kPa and 0.0003742 kPa and 0.0003877 kPa
351.07 K	0.0005411 kPa and 0.0005557 kPa and 0.0005348 kPa
353.12 K	0.0006853 kPa and 0.0006411 kPa and 0.0006134 kPa
355.18 K	0.0008786 kPa and 0.0007534 kPa and 0.0007633 kPa

O=C(O)C1c2ccccc2Oc2ccccc21 [9H-xanthene-9-carboxylic acid]
Settings	molar enthalpy [kJ/mol]
[2]	126

[1]
Settings	vapor or sublimation pressure
383.08 K	0.000119 kPa and 0.0001121 kPa and 0.0001132 kPa
385.15 K	0.0001477 kPa and 0.0001432 kPa and 0.0001353 kPa
387.25 K	0.0001726 kPa and 0.0001686 kPa and 0.0001619 kPa
389.12 K	0.0002124 kPa and 0.0002049 kPa and 0.0002165 kPa
391.13 K	0.0002584 kPa and 0.0002449 kPa
393.14 K	0.0003154 kPa and 0.0003062 kPa
395.13 K	0.0003811 kPa and 0.0003776 kPa and 0.0003653 kPa
397.11 K	0.0004814 kPa and 0.0004632 kPa
399.14 K	0.0005597 kPa and 0.0005447 kPa and 0.0005518 kPa
401.13 K	0.0006834 kPa and 0.0006937 kPa and 0.0006737 kPa
403.12 K	0.0008362 kPa and 0.0008293 kPa and 0.0007816 kPa
405.15 K	0.0009639 kPa and 0.0009409 kPa

NC(=O)C1c2ccccc2Oc2ccccc21 [9H-xanthene-9-carboxamide]
Settings	molar enthalpy [kJ/mol]
[2]	130

[1]
Settings	vapor or sublimation pressure
399.14 K	0.0001229 kPa and 0.0001189 kPa and 0.000116 kPa
401.14 K	0.000154 kPa and 0.0001484 kPa and 0.000144 kPa
403.16 K	0.0001893 kPa and 0.0001856 kPa and 0.0001767 kPa
405.15 K	0.0002159 kPa and 0.0002174 kPa
407.19 K	0.0002731 kPa and 0.0002662 kPa
409.17 K	0.0003106 kPa and 0.0002981 kPa and 0.0003072 kPa
411.15 K	0.0003968 kPa and 0.0003833 kPa
413.19 K	0.0004758 kPa and 0.0004828 kPa and 0.0004614 kPa
415.15 K	0.0005574 kPa and 0.0005463 kPa
417.17 K	0.000649 kPa and 0.0006492 kPa
419.18 K	0.0007769 kPa and 0.0008205 kPa
421.2 K	0.0009516 kPa and 0.0009609 kPa
